According to the NIST ThermoML archive (doi:10.1021/je4007844):
± gives the expanded uncertainty stated by the source.

Conditions: 101.33 kPa, Liquid; for mass density: Vibrating tube method; for viscosity: Concentric cylinders viscometry

CCCCCCn1cc[n+](C)c1.[Cl-] [1-hexyl-3-methylimidazolium chloride] gave a mass density (303.15 K) of 1035.1 ± 2.2 kg/m3, a mass density (313.15 K) of 1029.5 ± 2.2 kg/m3 and a viscosity (323.15 K) of 1806 ± 98 mPa·s. It also gave a mass density (323.15 K) of 1023.9 ± 2.2 kg/m3, a viscosity (333.15 K) of 810.3 ± 38 mPa·s and a mass density (333.15 K) of 1018.4 ± 2.2 kg/m3. The viscosity (343.15 K) was 404.3 ± 17 mPa·s, the mass density (343.15 K) was 1012.8 ± 2.2 kg/m3 and the viscosity (353.15 K) was 220.6 ± 8.1 mPa·s. It also gave a mass density (353.15 K) of 1007.4 ± 2.2 kg/m3, a viscosity (363.15 K) of 129.7 ± 4.4 mPa·s and a mass density (363.15 K) of 1002.1 ± 2.2 kg/m3. For the same compound, the viscosity (373.15 K) was 81.34 ± 2.6 mPa·s and the mass density (373.15 K) was 997.1 ± 2.2 kg/m3.
